In US9801376B2, “Synergistic pesticidal compositions and related methods” (Dow AgroSciences LLC, priority 2013, dated 2017):

Columns and labels:
Type in all cases: in vivo
[1] = system: Western flower thrips, Frankliniella occidentalis (Pergande); experiment: Western flower thrips bioassay on treated first true cotton leaves (Example 5); details: alone
Method: Ten second instar larvae of the Western flower thrips, Frankliniella occidentalis (Pergande), were infested onto each leaf disc. […] The “Colby's Expected Action” was calculated using Colby's equation as discussed previously.

[2] = system: diamondback moth, Plutella xylostella; experiment: Diamondback moth bioassay on track-sprayed cabbage (Example 7); details: alone, dose rate 0.000078 weight %
Excerpt: Three second-instar diamondback moth, Plutella xylostella, were infested onto each leaf disc.

[3] = system: brown stink bug, Euschistus heros; experiment: Brown stink bug diet-treatment bioassay (Example 6); details: alone
[4] = system: Western plant bug, Lygus hesperus; experiment: Western plant bug bean-piece dip bioassay (Examples 10 and 11)
Method: Bean pieces (about one inch-long) were used for the tests. Four bean pieces were placed in each tested active solution and left there for 10 minutes. Bean pieces were taken out of the active solution, and each piece was placed in a well in a 32-well tray and allowed to air dry. Three third-instar nymphs of Western plant bug, Lygus hesperus, were infested into each well.

[5] = system: Western flower thrips, Frankliniella occidentalis; experiment: Western flower thrips cotton leaf punch dip bioassay (Example 9); details: alone
Method: The active compounds were formulated in a 10% acetone solution with 0.025% non-ionic surfactant, TWEEN® 20. Cotton leaf punches were used for bioassays. Two cotton leaf punches were placed in each solution and left there for 10 minutes. Leaves were taken out of the solution, placed on a piece of filter paper in separated Petri dishes, and air dried. Each leaf disc was considered a repetition. Five nymph of Western flower thrips, Frankliniella occidentalis, were infested per repetition.

[6] = system: brown stink bug, Euschistus heros; experiment: Brown stink bug bean-piece dip bioassay (Example 8); details: alone
Method: The active compounds were formulated in a 10% acetone solution with 0.025% non-ionic surfactant, TWEEN® 20. Bean pieces (about one inch-long) were used for the tests. Four bean pieces were placed in each tested active solution and left there for 10 minutes. Bean pieces were taken out of the active solution, and each piece was placed in a well in a 32-well tray and allowed to air dry. Three third-instar nymphs of brown stink bug, Euschistus heros, were infested into each well.
The active compounds formulated in a 10% acetone solution with 0.025% non-ionic surfactant, TWEEN® 20 were tested against brown stink bugs, Euschistus heros, according to the procedure described in example 8A.

Row | SMILES | % Control Three Days After Treatment ([1]; dose rate 0.002 weight %) [%] | % Control Three Days After Treatment ([1]; dose rate 0.02 weight %) [%] | % Control Three Days After Treatment [2] [%] | % Control Six Days After Treatment ([3]; dose rate 0.000039 weight %) [%] | % Control Six Days After Treatment ([3]; dose rate 0.000078 weight %) [%] | % Control Six Days After Treatment ([3]; dose rate 0.000156 weight %) [%] | % Control Three Days After Treatment ([4]; acetamiprid alone, dose rate 0.005 weight %) [%] | % Control Three Days After Treatment ([4]; acetamiprid alone, dose rate 0.02 weight %) [%] | % Control Three Days After Treatment ([5]; dose rate 0.00002 weight %) [%] | % Control Three Days After Treatment ([5]; dose rate 0.000078 weight %) [%] | % Control Three Days After Treatment ([5]; dose rate 0.0003125 weight %) [%] | % Control Three Days After Treatment ([5]; dose rate 0.00125 weight %) [%] | % Control Three Days After Treatment ([5]; dose rate 0.005 weight %) [%] | % Control Three Days After Treatment ([5]; dose rate 0.02 weight %) [%] | % Control Four Days After Treatment ([6]; dose rate 0.0025 weight %) [%] | % Control Four Days After Treatment ([6]; dose rate 0.01 weight %) [%] | % Control Three Days After Treatment ([4]; dinotefuran alone, dose rate 0.000078 weight %) [%] | % Control Three Days After Treatment ([4]; dinotefuran alone, dose rate 0.00125 weight %) [%] | % Control Three Days After Treatment ([4]; dinotefuran alone, dose rate 0.005 weight %) [%] | % Control Three Days After Treatment ([4]; dinotefuran alone, dose rate 0.02 weight %) [%]
1 | C/C(=N\C#N)N(C)Cc1ccc(Cl)nc1 [Acetamiprid, (1E)-N-[(6-chloro-3-pyridyl)methyl]-N′-cyano-N-methyl acetamidine] | 30 | 60 | 4.17 | 0 | 0 | 9 | 0 | 33 | – | – | – | – | – | – | – | – | – | – | – | –
2 | CN=C(NCC1CCOC1)N[N+](=O)[O-] (centres unmarked) [Dinotefuran, 2-methyl-1-nitro-3-[(tetrahydro-3-furanyl)methyl]guanidine] | – | – | – | – | – | – | – | – | 0 | 0 | 0 | 0 | 10 | 0 | 50 | 75 | 0 | 8 | 17 | 92
